Experimental data as given in the NIST ThermoML archive (doi:10.1021/acs.jced.7b00900).
± gives the expanded uncertainty stated by the source.

Experiment: of the first substance listed, at infinite dilution; xn = mol fraction of the nth substance listed
Conditions: 298.15 K; 100 kPa; Liquid; isoperibol calorimeter; x1 = 0

SMILES | partial molar enthalpy [kcal/mol]
CCCCOCCCN [3-butoxy-1-propanamine] + O | -7.294 ± 0.0574
CCOCCCN [3-ethoxy-1-propanamine] + O | -6.582 ± 0.0526
